This note sets out measurements from paper PMC7180452, “Purine and Purine Isostere Derivatives of Ferrocene: An Evaluation of ADME, Antitumor and Electrochemical Properties” (Molecules, 2020).

Molecules are shown by their SMILES.

Series [1] is described as follows: Square-wave and cyclic voltammetry on glassy carbon electrode. It is filed as physicochemical. The settings on record: SWV, 0.5 mol/L NaClO4, pH 9, vs Ag/AgCl. The text has this: The electrochemical properties of 6-chloro-7-deazapurine and 6-chloropurine derivatives of ferrocene 11c, 13a and 15b on a glassy carbon electrode were studied using cyclic (CV) and square-wave voltammetry (SWV) in aqueous electrolyte solutions over a wide pH range. The pH was varied from 2 to 10 in order to determine the effect of pH on the voltammograms (net peak currents and potentials). […] The pH of the solution affects the voltammetric response of this compound, i.e., the oxidation of evaluated compounds 11c, 13a and 15b is strongly dependent on it.
The forward (if) and backward (ib) components of the net response (Δi = if − ib) are shown as well (inset in Figure 2). […] The peak P1 occurs in all supporting electrolytes (i.e., at 2 ≤ pH ≤ 10), while the peak P2 is only observed at pH ≥ 9 (see Figure 1). The potential of peak P1 is pH-independent. Comparing to the literature data, peak P1 can be ascribed to the following charge transfer reaction [Fe^II(C5H5)2] ⇌ [Fe^III(C5H5)2]^+ + e^− [44, 48].
All chemicals used in the experiments were of the best grade commercially available (Sigma-Aldrich) and were used without further purification. Stock standard solutions of compounds 11c, 13a, 15b (c = 2.0 × 10^−3 mol/L) and 6-chloropurine (c = 1.2 × 10^−2 mol/L) were prepared from dry pure substances in dimethyl sulfoxide (DMSO, p.a.), purchased from Kemika (Zagreb, Croatia). Stock standard solution of ethynyl ferrocene (c = 1.1 × 10^−2 mol/L) was prepared from dry pure substance in ethanol (Kemika). For the supporting electrolyte, analytical grade NaClO4 (Kemika) was used. Water was deionized by the Millipore Milli-Q system to the resistivity ≥ 18 MΩcm. Voltammetric measurements were carried out using the computer-controlled electrochemical system „PGSTAT 101“ (Eco-Chemie, Utrecht, The Netherlands), controlled by the electrochemical software “NOVA 1.5”. A three-electrode system (BioLogic, Claix, France) with glassy carbon electrode (GCE) of 3 mm in diameter as a working electrode, Ag/AgCl (3 mol/L NaCl) as a reference electrode and a platinum wire as a counter electrode were used. All potentials were expressed versus Ag/AgCl (3 mol/L NaCl) reference electrode. The supporting electrolyte (0.5 mol/L NaClO4), adjusted to the desired pH value, was placed in the electrochemical cell and the required aliquot of the standard analyte solution was added. The solution in the electrochemical cell was degassed with high purity nitrogen for 10 min before measurement, and the nitrogen blanket was maintained thereafter. Before each run, the glassy carbon working electrode was polished with diamond suspension in spray (grain size 6 µm) and rinsed with ethanol and deionized water. All experiments were performed at room temperature. The presented results are reported as the mean value of three independent measurements.

The conditions of series [2]: pH 7.4.
Method: The distribution coefficient Chrom logD, a parameter used to assess the lipophilicity of compounds [36, 37], was determined for novel purine and purine isosteres with a ferrocene motif as shown in Table 1.
The distribution coefficient, Chrom logD, was determined from compounds’ gradient retention times by employing a high-performance liquid chromatography method with fast acetonitrile gradient. Compounds were prepared for analysis in final concentration of 1.25 mM by dilution of 10 mM stock solutions in DMSO with acetonitrile. Aqueous mobile phase was 50 mM ammonium acetate adjusted with ammonia solution to pH 7.4 and the organic mobile phase was acetonitrile. A reversed phase HPLC column Luna C18, 50 × 3 mm i.d., 5 µm particle size (Phenomenex, Torrance, CA, USA) was used for analysis. Sample injection volume was 2 µL and the flow rate was 1 mL min^−1. All compounds were analysed in duplicates. Fast-gradient elution was as follows: from 0 to 100% of acetonitrile (0−3 min), 100% of acetonitrile (3.0−3.5 min), from 100 to 0% of acetonitrile (3.5−3.7 min), and re-equilibration with 100% of aqueous mobile phase (3.7−5.0 min). All measurements were performed on an HPLC-DAD instrument Agilent 1100 Series (Agilent Technologies, Santa Clara, CA, USA) coupled with a mass spectrometer Micromass Quattro API (Waters, MA, USA). MassLynx software, version 4.1 (Waters, Manchester, UK) was used for data acquisition and processing. Before compound analysis, a calibration step was performed. A set of standard compounds with literature CHI values [36] were plotted against gradient retention times to obtain a calibration equation, which was used to determine CHI value from the compounds’ retention times.
For series [3], the system named is ductal pancreatic adenocarcinoma (CFPAC-1). Nature of the series: In vitro antiproliferative activity, CFPAC-1. It is filed as cell-based, human. The following applies: CFPAC-1 cells. The protocol:
(§1) Antiproliferative activity of compounds 11a−11c, 12a−12c, 13a−13c, 14a−14c, 15a−15c, 16a, 23a−23c, 24a−24c, 25a−25c, 34a−34c and 35a−35c was evaluated in vitro on four human tumor cell lines (American Type Culture Collection, Manassas, VA, USA): metastatic colorectal adenocarcinoma (SW620), ductal pancreatic adenocarcinoma (CFPAC-1), hepatocellular carcinoma (HepG2) and cervical carcinoma (HeLa) as well as normal skin fibroblasts (HFF).

The subject of series [4] is metastatic colorectal adenocarcinoma (SW620). Nature of the series: In vitro antiproliferative activity, SW620. It is filed as cell-based, human. The settings on record: SW620 cells. The protocol:
as §1

Series [5] relates to hepatocellular carcinoma (HepG2). Nature of the series: In vitro antiproliferative activity, HepG2. The settings on record: HepG2 cells. It is filed as cell-based, human. On the procedure:
as §1

Series [6] has as its system cervical carcinoma (HeLa). The experiment in a line: In vitro antiproliferative activity, HeLa. The following applies: HeLa cells. Format: cell-based, human. The protocol:
as §1

For series [7], the system named is normal skin fibroblasts (HFF). The experiment in a line: Cytotoxicity on non-tumor cells, HFF. It is filed as cell-based, human. On the procedure:
as §1

With `Clc1ncnc2nc[nH]c12` [6-chloropurine, reference compound], the “Oxidation peak P2 potential (triazole)” value in series [1] is on record as “No anodic peak P2 was detected”.

In the case of `[Fe+2].c1cc[cH-]c1.c1ccc2c(c1)ncn2Cc1cn(-[c-]2cccc2)nn1` [Compound 23c, 1-[1-(1-Ferrocenyl-1,2,3-triazol-4-yl)methyl]-1H-benzimidazole], the “Chrom logD” value in series [2] worked out at 4.45. For the same compound, the IC50 in series [3], in series [4], in series [5], in series [6] and in series [7] was over 100 µM in each case.

For `[Fe+2].c1cc[cH-]c1.c1ccc2c(c1)ccn2Cc1cn(C[c-]2cccc2)nn1` [Compound 24a, 1-[1-(1-Ferrocenylmethyl-1,2,3-triazol-4-yl)methyl]-1H-indole], the “Chrom logD” value in series [2] is reported as over 6.57. Also, the half-inhibitory concentration (IC50) is 78 ± 6.61 µM in series [3]; 62 ± 8.79 µM in series [4]; 53.6 ± 5.05 µM in series [5]; 68.7 ± 2.91 µM in series [6]; 16.7 ± 8.61 µM in series [7].

In the case of `CC([c-]1cccc1)n1cc(Cn2ccc3ccccc32)nn1.[Fe+2].c1cc[cH-]c1` (centres unmarked) [Compound 24b, 1-[1-(1-Ferrocenyl-1-methylmethyl-1,2,3-triazol-4-yl)methyl]-1H-indole], the “Chrom logD” value in series [2] was over 6.57. Moreover, the 50% inhibitory concentration (IC50) in series [3] was 87.6 ± 1.79 µM; in series [4] it was over 100 µM; in series [5], over 100 µM; in series [6], 89.6 ± 7.64 µM; in series [7] it was over 100 µM.

Regarding `[Fe+2].c1cc[cH-]c1.c1ccc2c(c1)ccn2Cc1cn(-[c-]2cccc2)nn1` [Compound 24c, 1-[1-(1-Ferrocenyl-1,2,3-triazol-4-yl)methyl]-1H-indole], in series [2], the “Chrom logD” value is over 6.57. The concentration for half-maximal inhibition (IC50) was 84.5 ± 15.8 µM in series [3]; over 100 µM in series [4]; 90.9 ± 11.5 µM in series [5]; 88.1 ± 1.18 µM in series [6]; over 100 µM in series [7].

Regarding `Ic1ccc2c(ccn2Cc2cn(C[c-]3cccc3)nn2)c1.[Fe+2].c1cc[cH-]c1` [Compound 25a, 5-Iodo-1-[1-(1-ferrocenylmethyl-1,2,3-triazol-4-yl)methyl]-1H-indole], in series [2], the “Chrom logD” value was over 6.57. Further, the IC50 in series [3] is over 100 µM; in series [4], over 100 µM; in series [5], over 100 µM; in series [6], 78.5 ± 9.36 µM; in series [7] it was over 100 µM.

On to `CC([c-]1cccc1)n1cc(Cn2ccc3cc(I)ccc32)nn1.[Fe+2].c1cc[cH-]c1` (centres unmarked) [Compound 25b, 5-Iodo-1-[1-(1-ferrocenyl-1-methylmethyl-1,2,3-triazol-4-yl)methyl]-1H-indole], for which, in series [2], the “Chrom logD” value is over 6.57. For the same compound, the IC50 in series [3], in series [4], in series [5], in series [6] and in series [7] was over 100 µM in each case.

Take `Ic1ccc2c(ccn2Cc2cn(-[c-]3cccc3)nn2)c1.[Fe+2].c1cc[cH-]c1` [Compound 25c, 5-Iodo-1-[1-(1-ferrocenyl-1,2,3-triazol-4-yl)methyl]-1H-indole]: the “Chrom logD” value in series [2] is listed as over 6.57. The concentration for half-maximal inhibition (IC50) in series [3] is over 100 µM; in series [4], over 100 µM; in series [5], 71.8 ± 3.44 µM; in series [6] it was 79.4 ± 1.82 µM; in series [7], 4.75 ± 1.7 µM.

As for `C#Cc1cc[cH-]c1.[Fe+2].c1cc[cH-]c1` [ethynyl ferrocene, reference compound], the “Oxidation peak P2 potential (triazole)” value in series [1] is recorded as “No anodic peak P2 was detected”.

Broadly, the IC50 is the concentration that inhibits the measured activity by half.
